Experimental data published in patent publication US12552825B2 (Zikani Therapeutics, Inc., priority 2019, dated 2026).
In brackets after ≈: the same amount, converted by molar mass.

Legend:
Format in all cases: cell-based
[1] = tested on: E. coli MP-4; test: MIC determination by CLSI broth dilution, E. coli MP-4; conditions: Escherichia coli, MP4, CLSI broth dilution; strain MP-4
[2] = tested on: K. pneumoniae MP-546; test: MIC determination by CLSI broth dilution, K. pneumoniae MP-546; conditions: Klebsiella pneumoniae, MP546, CLSI broth dilution; strain MP-546
[3] = tested on: P. aeruginosa MP-3; test: MIC determination by CLSI broth dilution, P. aeruginosa MP-3; conditions: Pseudomonas aeruginosa, MP3, strain MP-3
[4] = tested on: A. baumannii MP-15; test: MIC determination by CLSI broth dilution, A. baumannii MP-15; conditions: Acinetobacter baumannii, MP15, strain MP-15, read-out: MIC A. baumanii MP-15
[5] = tested on: S. aureus MP-12; test: microbe, parasite or virus in culture; conditions: Staphylococcus aureus, MP12, read-out: MIC S. aureus MP-12

SMILES	MIC [1] [µg/mL]	MIC [2] [µg/mL]	MIC [3] [µg/mL]	MIC [4] [µg/mL]	MIC [5] [µg/mL]
CO[C@]1(C)C[C@@H](C)CN[C@@H](CN(C)C)COC(=O)C(C)(C)C(=O)[C@H](C)[C@H]1O[C@@H]1O[C@H](C)C[C@H](N(C)C)[C@H]1O [Compound 17, (3S,6R,8R,9R,10R)-9-(((2S,3R,4S,6R)-4-(dimethylamino)-3-hydroxy-6-methyltetrahydro-2H-pyran-2-yl)oxy)-3-((dimethylamino)methyl)-8-methoxy-6,8,10,12,12-pentamethyl-1-oxa-4-azacyclotridecane-11,13-dione]	> 32	> 32	> 32	> 32	> 32
CCN(CC)CCC[C@H]1COC(=O)C(C)(C)C(=O)[C@H](C)[C@@H](O[C@@H]2O[C@H](C)C[C@H](N(C)C)[C@H]2O)[C@](C)(OC)C[C@@H](C)CN1C [Compound 19, (3S,6R,8R,9R,10R)-3-(3-(diethylamino)propyl)-9-(((2S,3R,4S,6R)-4-(dimethylamino)-3-hydroxy-6-methyltetrahydro-2H-pyran-2-yl)oxy)-8-methoxy-4,6,8,10,12,12-hexamethyl-1-oxa-4-azacyclotridecane-11,13-dione]	< 4	< 4	> 32	> 32	4 to 32 (≈ 6.52 to 52.1 µM)
CCN(C)CCC[C@H]1COC(=O)C(C)(C)C(=O)[C@H](C)[C@@H](O[C@@H]2O[C@H](C)C[C@H](N(C)C)[C@H]2O)[C@](C)(OC)C[C@@H](C)CN1C [Compound 20, (3S,6R,8R,9R,10R)-9-(((2S,3R,4S,6R)-4-(dimethylamino)-3-hydroxy-6-methyltetrahydro-2H-pyran-2-yl)oxy)-3-(3-(ethyl(methyl)amino)propyl)-8-methoxy-4,6,8,10,12,12-hexamethyl-1-oxa-4-azacyclotridecane-11,13-dione]	< 4	< 4	> 32	> 32	4 to 32 (≈ 6.67 to 53.3 µM)
CCC(O)C(C)CN1CCC(C[C@@H]2COC(=O)C(C)(C)C(=O)[C@H](C)[C@@H](O[C@@H]3O[C@H](C)C[C@H](N(C)C)[C@H]3O)[C@](C)(OC)C[C@@H](C)CN2C)CC1 (some centres unmarked) [Compound 35]	< 4	< 4	> 32	> 32	4 to 32 (≈ 5.73 to 45.8 µM)
CO[C@]1(C)C[C@@H](C)CN(C)[C@H](CC2CCN(CC(C)(C)C)CC2)C(C)(C)OC(=O)C(C)(C)C(=O)[C@H](C)[C@H]1O[C@@H]1O[C@H](C)C[C@H](N(C)C)[C@H]1O [Compound 36]	< 4	4 to 32 (≈ 5.75 to 46 µM)	> 32	4 to 32 (≈ 5.75 to 46 µM)	4 to 32 (≈ 5.75 to 46 µM)
CO[C@]1(C)C[C@@H](C)CN(C)[C@@H](CC2CCN(CC(C)(C)C)CC2)C(C)(C)OC(=O)C(C)(C)C(=O)[C@H](C)[C@H]1O[C@@H]1O[C@H](C)C[C@H](N(C)C)[C@H]1O [Compound 37]	4 to 32 (≈ 5.75 to 46 µM)	> 32	> 32	> 32	> 32
CCCN1CCC(C[C@@H]2[C@@H](C)OC(=O)C(C)(C)C(=O)[C@H](C)[C@@H](O[C@@H]3O[C@H](C)C[C@H](N(C)C)[C@H]3O)[C@](C)(OC)C[C@@H](C)CN2C)CC1 [Compound 38]	< 4	< 4	> 32	> 32	> 32
CO[C@]1(C)C[C@@H](C)CN(C)[C@H](CC2CCN(CC(C)(C)C)CC2)[C@@H](C)OC(=O)C(C)(C)C(=O)[C@H](C)[C@H]1O[C@@H]1O[C@H](C)C[C@H](N(C)C)[C@H]1O [Compound 39]	< 4	4 to 32 (≈ 5.87 to 46.9 µM)	> 32	> 32	> 32
CO[C@]1(C)C[C@@H](C)CN(C)[C@H](CC2CCN(CC[C@@H](C)CCC=C(C)C)CC2)[C@@H](C)OC(=O)C(C)(C)C(=O)[C@H](C)[C@H]1O[C@@H]1O[C@H](C)C[C@H](N(C)C)[C@H]1O [Compound 40]	< 4	4 to 32 (≈ 5.33 to 42.7 µM)	> 32	4 to 32 (≈ 5.33 to 42.7 µM)	4 to 32 (≈ 5.33 to 42.7 µM)
CCCN1CCC(C[C@H]2COC(=O)C(C)(C)C(=O)[C@H](C)[C@@H](O[C@@H]3O[C@H](C)C[C@H](N(C)C)[C@H]3O)[C@](C)(OC)C[C@@H](C)CN2C)CC1 [Compound 41]	4 to 32 (≈ 6.25 to 50 µM)	4 to 32 (≈ 6.25 to 50 µM)	> 32	> 32	> 32
CCCN1CCC(C[C@@H]2COC(=O)C(C)(C)C(=O)[C@H](C)[C@@H](O[C@@H]3O[C@H](C)C[C@H](N(C)C)[C@H]3O)[C@](C)(OC)C[C@@H](C)CN2C)CC1 [Compound 42]	< 4	< 4	> 32	> 32	4 to 32 (≈ 6.25 to 50 µM)
CO[C@]1(C)C[C@@H](C)CN(C)[C@@H](CC2CCN(C(=O)C3CC3)CC2)COC(=O)C(C)(C)C(=O)[C@H](C)[C@H]1O[C@@H]1O[C@H](C)C[C@H](N(C)C)[C@H]1O [Compound 44]	> 32	> 32	> 32	> 32	4 to 32 (≈ 6.01 to 48.1 µM)
CO[C@]1(C)C[C@@H](C)CN(C)[C@H](CC2CCN(C(=O)C3CC3)CC2)COC(=O)C(C)(C)C(=O)[C@H](C)[C@H]1O[C@@H]1O[C@H](C)C[C@H](N(C)C)[C@H]1O [Compound 45]	4 to 32 (≈ 6.01 to 48.1 µM)	4 to 32 (≈ 6.01 to 48.1 µM)	> 32	> 32	4 to 32 (≈ 6.01 to 48.1 µM)
CCCN1CCC(C[C@H]2N(C)C[C@H](C)C[C@@](C)(OC)[C@H](O[C@@H]3O[C@H](C)C[C@H](N(C)C)[C@H]3O)[C@@H](C)C(=O)C(C)(C)C(=O)OC2(C)C)CC1 [Compound 46]	< 4	< 4	> 32	> 32	4 to 32 (≈ 5.99 to 47.9 µM)
CO[C@]1(C)C[C@@H](C)CN(C)[C@H](CC2CCN(C(C)C)CC2)C(C)(C)OC(=O)C(C)(C)C(=O)[C@H](C)[C@H]1O[C@@H]1O[C@H](C)C[C@H](N(C)C)[C@H]1O [Compound 47]	< 4	4 to 32 (≈ 5.99 to 47.9 µM)	> 32	> 32	4 to 32 (≈ 5.99 to 47.9 µM)
CCCN1CCC(C[C@@H]2N(C)C[C@H](C)C[C@@](C)(OC)[C@H](O[C@@H]3O[C@H](C)C[C@H](N(C)C)[C@H]3O)[C@@H](C)C(=O)C(C)(C)C(=O)OC2(C)C)CC1 [Compound 48]	< 4	4 to 32 (≈ 5.99 to 47.9 µM)	> 32	> 32	> 32
CO[C@]1(C)C[C@@H](C)CN(C)[C@H](CC2CCN(C)CC2)[C@@H](C)OC(=O)C(C)(C)C(=O)[C@H](C)[C@H]1O[C@@H]1O[C@H](C)C[C@H](N(C)C)[C@H]1O [Compound 49]	< 4	4 to 32 (≈ 6.39 to 51.1 µM)	> 32	> 32	> 32
CO[C@]1(C)C[C@@H](C)CN(C)[C@H](CC2CCN(CC(C)(C)C)CC2)COC(=O)C(C)(C)C(=O)[C@H](C)[C@H]1O[C@@H]1O[C@H](C)C[C@H](N(C)C)[C@H]1O [Compound 54]	< 4	< 4	> 32	> 32	4 to 32 (≈ 5.99 to 47.9 µM)
CO[C@]1(C)C[C@@H](C)CN(C)[C@@H](CC2CCN(CC(C)(C)C)CC2)COC(=O)C(C)(C)C(=O)[C@H](C)[C@H]1O[C@@H]1O[C@H](C)C[C@H](N(C)C)[C@H]1O [Compound 66]	4 to 32 (≈ 5.99 to 47.9 µM)	4 to 32 (≈ 5.99 to 47.9 µM)	> 32	> 32	> 32
